Laboratory results from patent US8058242B2, “Chimeric proteins with natriuretic activity” (The University of Queensland, priority 2004, dated 2011).

Tests used:
[1] = test system: endothelium-intact aortic rings (NPR-C mediated); assay: Aortic ring relaxation, endothelium-intact rings pre-contracted with 40 mM KCl (Example 3); design: species or system rat; details: for competitive inhibition of the binding of TNPc: endothelium-intact aortic rings, TNPa or TNPb followed by TNPc 0.1 μM; for percentage relaxation of the precontraction by KCl: endothelium-intact rat aortas pre-contracted with 40 mM KCl, peptide 0.1 μM
Experimental: (§1) Male Sprague Dawley rats were killed and the descending thoracic aorta rapidly removed and flushed with physiological solution. After being cleared of adhering fat and connective tissue, 5 mm rings were mounted under 10 g resting tension, between two stainless steel hooks, in organ baths (37° C.) containing carbogenated (95% O2 and 5% CO2) physiological salt solution of the following composition (mM): NaCl, 118.4; NaHCO3, 25; glucose, 11; KCl, 4.7; MgSO4, 1.2; KH2PO4, 1.2 and CaCl2, 2.5. The lower hook was attached to a tissue holder and the upper hook to a force displacement transducer (Grass FTO3). Where indicated endothelial cells were removed by gentle rubbing of the intimal surface with a wire. To confirm the presence or absence of endothelial cells, tissues were precontracted with a sub-maximal concentration of phenylephrine (0.3 μM) and the response to acetylcholine (ACh, 10 μM) observed. Ach-induced relaxation greater than 80% of maximum indicated the presence of endothelium; whereas Ach-induced relaxation less than 10% indicated the absence of endothelium. Ring preparations under resting tension were conditioned by two contraction/relaxation cycles with 40 mM KCl, contracted by a third application of 40 mM KCl and then relaxed with different doses of the venom peptides. Responses were expressed as a percentage relaxation of the precontraction by KCl.

[2] = test system: endothelium-denuded aortic rings (GC-A mediated); assay: Aortic ring relaxation, endothelium-denuded rings pre-contracted with 40 mM KCl (Example 3); design: species or system rat; details: for competitive inhibition of the binding of TNPc: endothelium-denuded aortic rings, TNPa or TNPb followed by TNPc 0.1 μM; for percentage relaxation of the precontraction by KCl: endothelium-denuded rat aortas pre-contracted with 40 mM KCl, peptide 0.1 μM
Experimental: as §1

[3] = test system: conscious rabbits; assay: Blood pressure and heart rate in conscious rabbits, intravenous infusion dose-response (Example 8); details: for Recovery (MAP) / Recovery Delta SED (MAP): after 1 hour recovery period; for Recovery (MAP) / Recovery Delta SED (MAP) / MAP at final dose / Treatment Effect, change of mean blood pressure during the infusion: Table 10A; for MAP at final dose / Treatment Effect, change of mean blood pressure during the infusion: highest dose; for Treatment Effect, change of mean blood pressure during the infusion: groups 1, 2A and 3; for Diastolic BP, mean difference from control / HR, mean difference from control / Mean BP, mean difference from control / Systolic BP, mean difference from control: 45 min
[4] = biological target: T1, rat GC-A (Rattus norvegicus, UniProt P18910); assay: Cell cyclic GMP elevations in HEK-293 cells stably expressing rat GC-A (Example 4); format: cell-based; details: 0.1 μM; 293 cells over-expressing GC-A
T1 construct: expressed in transfected cells
T1 sequence (P18910 29-1057): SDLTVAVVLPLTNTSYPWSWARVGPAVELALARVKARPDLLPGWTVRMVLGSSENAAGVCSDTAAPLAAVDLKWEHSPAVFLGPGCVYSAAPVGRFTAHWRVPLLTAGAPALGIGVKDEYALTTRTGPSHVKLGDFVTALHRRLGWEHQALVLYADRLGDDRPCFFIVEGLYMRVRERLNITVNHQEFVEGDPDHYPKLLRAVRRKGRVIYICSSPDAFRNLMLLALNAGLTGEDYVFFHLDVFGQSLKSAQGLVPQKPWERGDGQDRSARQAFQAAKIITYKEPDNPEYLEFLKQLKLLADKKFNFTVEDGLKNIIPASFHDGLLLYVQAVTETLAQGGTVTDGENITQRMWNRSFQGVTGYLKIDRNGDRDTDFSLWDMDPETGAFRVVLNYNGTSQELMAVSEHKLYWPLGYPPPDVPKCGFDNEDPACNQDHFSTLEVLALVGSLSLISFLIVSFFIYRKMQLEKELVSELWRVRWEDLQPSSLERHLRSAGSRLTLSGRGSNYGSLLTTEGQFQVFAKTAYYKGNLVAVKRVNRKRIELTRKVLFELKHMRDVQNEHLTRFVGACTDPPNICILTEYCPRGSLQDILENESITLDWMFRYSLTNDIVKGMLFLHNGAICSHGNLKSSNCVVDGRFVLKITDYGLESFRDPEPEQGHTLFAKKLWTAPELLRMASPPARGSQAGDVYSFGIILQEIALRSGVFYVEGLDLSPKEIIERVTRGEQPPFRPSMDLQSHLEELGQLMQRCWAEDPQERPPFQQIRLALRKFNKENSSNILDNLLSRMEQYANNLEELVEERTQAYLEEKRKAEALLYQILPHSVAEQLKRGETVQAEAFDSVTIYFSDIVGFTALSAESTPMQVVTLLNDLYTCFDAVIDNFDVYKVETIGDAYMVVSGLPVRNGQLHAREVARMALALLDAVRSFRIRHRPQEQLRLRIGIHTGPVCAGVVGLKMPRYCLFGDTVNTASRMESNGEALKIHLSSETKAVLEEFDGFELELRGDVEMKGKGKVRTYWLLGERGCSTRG
Description: The human embryonic kidney 293 (HEK-293) cell line was used for the stable expression of rat GC-A (GC-A/293). Cells expressing rat GC-A (GC-A/293) in the HEK-293 cell line were as previously described (Potter L. R., and Garbers D. L., (1992), J Biol Chem. 26, 14531-4) and determination of cGMP elevations was undertaken as previously described (Chrisman et al. T. D., Schulz, S., Potter, L. R. and Garbers, D. L., (1993,) J. Biol. Chem. (1993) 268 (5), 3698-3703). Responses were expressed as a percentage of the effect produced by ANP.

[5] = average of the 3 doses 1.0, 2.0, 4.0 μg/kg/min

SDPKIGDGCFGLPLDHIGSVSGLGCNRPVQNRPKK (A portion of a natriuretic peptide) [TNPb]
competitive inhibition of the binding of TNPc [1]: lack the ability to competitively inhibit the binding of TNPc | percentage relaxation of the precontraction by KCl [1]: approximately 20% | competitive inhibition of the binding of TNPc [2]: lack the ability to competitively inhibit the binding of TNPc | percentage relaxation of the precontraction by KCl [2]: no relaxation | Recovery (MAP) [3]: 68.2 mm Hg | Recovery Delta SED (MAP) [3]: 3.5 ± 2.3 mm Hg | Diastolic BP, Average Response SED [3, 5]: −7.8 ± 0.9 mmHg | HR, Average Response SED [3, 5]: −1.4 ± 3.5 bpm | Mean BP (MAP), Average Response SED [3, 5]: −9.6 ± 1.1 mmHg | Systolic BP, Average Response SED [3, 5]: −8.9 ± 1.4 mmHg | MAP at final dose [3]: 64.7 mm Hg | Treatment Effect, change of mean blood pressure during the infusion [3]: −11.0 mm Hg | Diastolic BP, mean difference from control ([3]; i.v. infusion 1.0 μg/kg/min): −7.0 mmHg | HR, mean difference from control ([3]; i.v. infusion 1.0 μg/kg/min): −3.9 bpm | Mean BP, mean difference from control ([3]; i.v. infusion 1.0 μg/kg/min): −8.0 mmHg | Systolic BP, mean difference from control ([3]; i.v. infusion 1.0 μg/kg/min): −7.9 mmHg | Diastolic BP, mean difference from control ([3]; i.v. infusion 2.0 μg/kg/min): −7.9 mmHg | HR, mean difference from control ([3]; i.v. infusion 2.0 μg/kg/min): −5.1 bpm | Mean BP, mean difference from control ([3]; i.v. infusion 2.0 μg/kg/min): −9.8 mmHg | Systolic BP, mean difference from control ([3]; i.v. infusion 2.0 μg/kg/min): −8.8 mmHg | Diastolic BP, mean difference from control ([3]; i.v. infusion 4.0 μg/kg/min): −8.6 mmHg | HR, mean difference from control ([3]; i.v. infusion 4.0 μg/kg/min): 4.7 bpm | Mean BP, mean difference from control ([3]; i.v. infusion 4.0 μg/kg/min): −11.0 mmHg | Systolic BP, mean difference from control ([3]; i.v. infusion 4.0 μg/kg/min): −10.0 mmHg | cGMP elevations, percentage of the effect produced by ANP [4]: lesser effects on cGMP elevations

SDSKIGDGCFGLPLDHIGSVSGLGCNRPVQNRPKK (A portion of a natriuretic peptide) [TNPa]
competitive inhibition of the binding of TNPc [1]: lack the ability to competitively inhibit the binding of TNPc | percentage relaxation of the precontraction by KCl [1]: approximately 20% | competitive inhibition of the binding of TNPc [2]: lack the ability to competitively inhibit the binding of TNPc | percentage relaxation of the precontraction by KCl [2]: no relaxation | Recovery (MAP) [3]: 65.3 mm Hg | Recovery Delta SED (MAP) [3]: 3.0 ± 2.9 mm Hg | Diastolic BP, Average Response SED [3, 5]: −7.9 ± 0.9 mmHg | Mean BP (MAP), Average Response SED [3, 5]: −8.7 ± 1.1 mmHg | Systolic BP, Average Response SED [3, 5]: −5.7 ± 1.3 mmHg | MAP at final dose [3]: 62.3 mm Hg | Treatment Effect, change of mean blood pressure during the infusion [3]: −11.6 mm Hg | Diastolic BP, mean difference from control ([3]; i.v. infusion 1.0 μg/kg/min): −6.0 mmHg | HR, mean difference from control ([3]; i.v. infusion 1.0 μg/kg/min): −16.1 bpm | Mean BP, mean difference from control ([3]; i.v. infusion 1.0 μg/kg/min): −6.4 mmHg | Systolic BP, mean difference from control ([3]; i.v. infusion 1.0 μg/kg/min): −2.8 mmHg | Diastolic BP, mean difference from control ([3]; i.v. infusion 2.0 μg/kg/min): −7.7 mmHg | HR, mean difference from control ([3]; i.v. infusion 2.0 μg/kg/min): −15.9 bpm | Mean BP, mean difference from control ([3]; i.v. infusion 2.0 μg/kg/min): −8.0 mmHg | Systolic BP, mean difference from control ([3]; i.v. infusion 2.0 μg/kg/min): −4.9 mmHg | Diastolic BP, mean difference from control ([3]; i.v. infusion 4.0 μg/kg/min): −9.9 mmHg | HR, mean difference from control ([3]; i.v. infusion 4.0 μg/kg/min): −9.8 bpm | Mean BP, mean difference from control ([3]; i.v. infusion 4.0 μg/kg/min): −11.6 mmHg | Systolic BP, mean difference from control ([3]; i.v. infusion 4.0 μg/kg/min): −9.4 mmHg | cGMP elevations, percentage of the effect produced by ANP [4]: lesser effects on cGMP elevations
